Experimental data: ChEMBL document CHEMBL1201862, “PubChem BioAssay data set” (2004)
Activity calls are given as the source filed them.

Experiments:
[1] = target: Dual specificity protein phosphatase 3 (Homo sapiens, UniProt P51452); experiment: inhibition constants for human DUSP3 – biochemical, colorimetric, SAR follow-up (AID 2004)
[2] = target: SWI/SNF-related matrix-associated actin-dependent regulator of chromatin subfamily A member 2 (Homo sapiens, UniProt P51531); experiment: Luminescence-based cell-based high throughput dose response assay to identify activators of the function of SWI/SNF related, matrix associated, actin dependent regulator of chromatin, subfamily a, member 2 (SMARCA2, BRM).; assay type: functional
Chain of SWI/SNF-related matrix-associated actin-dependent regulator of chromatin subfamily A member 2 (P51531 whole entry): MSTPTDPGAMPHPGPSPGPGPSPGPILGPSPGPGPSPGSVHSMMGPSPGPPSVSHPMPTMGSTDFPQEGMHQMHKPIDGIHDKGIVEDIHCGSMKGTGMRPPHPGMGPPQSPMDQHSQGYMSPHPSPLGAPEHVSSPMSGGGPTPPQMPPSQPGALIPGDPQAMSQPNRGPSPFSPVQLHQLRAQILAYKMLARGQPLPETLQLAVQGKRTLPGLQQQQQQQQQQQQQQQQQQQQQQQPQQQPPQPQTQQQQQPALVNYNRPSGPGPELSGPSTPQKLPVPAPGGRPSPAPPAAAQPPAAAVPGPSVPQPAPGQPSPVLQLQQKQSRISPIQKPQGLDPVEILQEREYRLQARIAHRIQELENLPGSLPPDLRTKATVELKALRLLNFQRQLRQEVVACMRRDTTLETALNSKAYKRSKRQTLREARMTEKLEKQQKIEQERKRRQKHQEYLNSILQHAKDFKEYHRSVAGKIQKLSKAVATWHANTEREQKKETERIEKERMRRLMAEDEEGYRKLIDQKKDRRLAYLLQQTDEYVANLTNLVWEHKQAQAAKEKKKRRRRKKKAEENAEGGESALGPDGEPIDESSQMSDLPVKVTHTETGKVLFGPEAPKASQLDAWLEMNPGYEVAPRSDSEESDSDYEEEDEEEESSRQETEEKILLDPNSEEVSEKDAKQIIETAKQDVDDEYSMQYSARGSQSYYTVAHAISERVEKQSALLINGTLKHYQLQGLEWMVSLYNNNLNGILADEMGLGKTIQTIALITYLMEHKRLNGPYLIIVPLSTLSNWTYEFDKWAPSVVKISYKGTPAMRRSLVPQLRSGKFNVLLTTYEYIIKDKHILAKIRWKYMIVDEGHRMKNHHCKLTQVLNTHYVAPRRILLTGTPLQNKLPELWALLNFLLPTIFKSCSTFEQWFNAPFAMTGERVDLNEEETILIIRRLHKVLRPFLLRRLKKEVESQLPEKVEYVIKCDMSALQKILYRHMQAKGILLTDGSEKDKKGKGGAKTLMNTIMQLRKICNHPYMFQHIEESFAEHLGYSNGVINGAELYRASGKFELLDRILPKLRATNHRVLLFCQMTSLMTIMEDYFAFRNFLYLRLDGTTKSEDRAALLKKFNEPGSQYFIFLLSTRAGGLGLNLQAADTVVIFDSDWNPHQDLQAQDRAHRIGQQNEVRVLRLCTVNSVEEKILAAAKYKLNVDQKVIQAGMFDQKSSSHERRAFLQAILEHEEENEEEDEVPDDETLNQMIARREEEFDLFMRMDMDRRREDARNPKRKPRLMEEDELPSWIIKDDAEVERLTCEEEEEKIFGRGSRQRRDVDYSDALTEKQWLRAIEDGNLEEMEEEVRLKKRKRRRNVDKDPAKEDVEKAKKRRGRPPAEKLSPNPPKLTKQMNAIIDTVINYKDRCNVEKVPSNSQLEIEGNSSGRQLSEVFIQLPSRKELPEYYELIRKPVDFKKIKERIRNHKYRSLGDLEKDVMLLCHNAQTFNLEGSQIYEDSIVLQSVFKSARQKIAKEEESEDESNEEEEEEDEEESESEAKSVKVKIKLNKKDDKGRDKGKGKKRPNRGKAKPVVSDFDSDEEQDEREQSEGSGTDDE

[3] = Trypanosoma cruzi growth suppression in host cells – NIH3T3 host cells, beta-gal luminescence, confirmation (AID 2044); assay type: functional, cell-based;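 note: intracellular parasites grown in NIH/3T3 mouse fibroblasts as host cells; luminescent beta-galactosidase reporter signal from transgenic T. cruzi replicating inside host cells; inhibitors lower the luminescence signal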
[4] = NIH3T3 cell viability loss – ATP luminescence, mouse fibroblasts, counter-screen, dose response (AID 2010); assay type: functional, cell-based; settings: NIH3T3;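 note: cells exposed to compound for about 90 hours before reading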
Protein Rev = Protein Rev (Human immunodeficiency virus type 1 group M subtype B (isolate WMJ22)(HIV-1), UniProt P05866); experiment: inhibitors of Rev protein–RRE RNA complex – biochemical, protein-RNA interaction, dose response (AID 842); set-up: species or system Human immunodeficiency virus 1
Chain of Protein Rev (P05866 whole entry): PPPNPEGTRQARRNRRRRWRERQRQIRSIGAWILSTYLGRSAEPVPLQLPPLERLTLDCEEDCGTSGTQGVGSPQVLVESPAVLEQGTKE

[5] = Counterscreen for activators of the function of SWI/SNF related, matrix associated, actin dependent regulator of chromatin, subfamily a, member 2 (SMARCA2, BRM): Luminescence-based cell-based high throughput dose response assay to identify non-selective compounds using the VP16 reporter assay.; assay type: functional
[6] = A cytotoxicity screen of small molecule inhibitors of the PhoP region in Salmonella typhi identified in the primary screen. [Related pubchem assays: 1850, 1864, 1985 ]; assay type: functional
[7] = target: T1, Tyrosine-protein phosphatase non-receptor type 7 (Homo sapiens, UniProt P35236); assay type: functional
T1 sequence (P35236 whole entry): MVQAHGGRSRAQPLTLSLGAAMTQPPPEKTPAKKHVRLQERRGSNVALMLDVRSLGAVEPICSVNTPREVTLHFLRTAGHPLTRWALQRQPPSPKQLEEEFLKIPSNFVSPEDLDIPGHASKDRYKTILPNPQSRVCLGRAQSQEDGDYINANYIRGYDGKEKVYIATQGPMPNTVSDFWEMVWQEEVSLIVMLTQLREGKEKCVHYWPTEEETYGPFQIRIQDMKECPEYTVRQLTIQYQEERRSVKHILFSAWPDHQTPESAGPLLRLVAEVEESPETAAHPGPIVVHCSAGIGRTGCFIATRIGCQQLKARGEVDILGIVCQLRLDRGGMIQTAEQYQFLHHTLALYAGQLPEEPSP

[8] = target: T2, Dual specificity protein phosphatase 6 (Rattus norvegicus, UniProt Q64346); assay type: functional
T2 sequence (Q64346 whole entry): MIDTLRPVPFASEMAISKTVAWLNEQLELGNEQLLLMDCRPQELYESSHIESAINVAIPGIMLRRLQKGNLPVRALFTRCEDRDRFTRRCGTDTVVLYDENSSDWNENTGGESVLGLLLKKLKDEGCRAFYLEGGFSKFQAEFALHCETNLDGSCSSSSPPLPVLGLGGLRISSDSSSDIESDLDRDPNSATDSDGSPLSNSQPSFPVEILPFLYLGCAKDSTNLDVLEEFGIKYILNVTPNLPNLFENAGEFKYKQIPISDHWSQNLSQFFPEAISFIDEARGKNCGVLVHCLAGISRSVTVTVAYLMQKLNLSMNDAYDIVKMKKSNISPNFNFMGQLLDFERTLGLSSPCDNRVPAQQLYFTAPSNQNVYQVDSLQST

[9] = target: Glyceraldehyde-3-phosphate dehydrogenase (Homo sapiens, UniProt P04406)
[10] = target: T2, Dual specificity protein phosphatase 6
[11] = target: T3, Voltage-gated N-type calcium channel alpha-1B subunit/Amyloid beta A4 precursor protein-binding family A member 1 (Homo sapiens, UniProt Q00975+Q02410); assay type: protein assay
T3 sequence (Q00975 whole entry): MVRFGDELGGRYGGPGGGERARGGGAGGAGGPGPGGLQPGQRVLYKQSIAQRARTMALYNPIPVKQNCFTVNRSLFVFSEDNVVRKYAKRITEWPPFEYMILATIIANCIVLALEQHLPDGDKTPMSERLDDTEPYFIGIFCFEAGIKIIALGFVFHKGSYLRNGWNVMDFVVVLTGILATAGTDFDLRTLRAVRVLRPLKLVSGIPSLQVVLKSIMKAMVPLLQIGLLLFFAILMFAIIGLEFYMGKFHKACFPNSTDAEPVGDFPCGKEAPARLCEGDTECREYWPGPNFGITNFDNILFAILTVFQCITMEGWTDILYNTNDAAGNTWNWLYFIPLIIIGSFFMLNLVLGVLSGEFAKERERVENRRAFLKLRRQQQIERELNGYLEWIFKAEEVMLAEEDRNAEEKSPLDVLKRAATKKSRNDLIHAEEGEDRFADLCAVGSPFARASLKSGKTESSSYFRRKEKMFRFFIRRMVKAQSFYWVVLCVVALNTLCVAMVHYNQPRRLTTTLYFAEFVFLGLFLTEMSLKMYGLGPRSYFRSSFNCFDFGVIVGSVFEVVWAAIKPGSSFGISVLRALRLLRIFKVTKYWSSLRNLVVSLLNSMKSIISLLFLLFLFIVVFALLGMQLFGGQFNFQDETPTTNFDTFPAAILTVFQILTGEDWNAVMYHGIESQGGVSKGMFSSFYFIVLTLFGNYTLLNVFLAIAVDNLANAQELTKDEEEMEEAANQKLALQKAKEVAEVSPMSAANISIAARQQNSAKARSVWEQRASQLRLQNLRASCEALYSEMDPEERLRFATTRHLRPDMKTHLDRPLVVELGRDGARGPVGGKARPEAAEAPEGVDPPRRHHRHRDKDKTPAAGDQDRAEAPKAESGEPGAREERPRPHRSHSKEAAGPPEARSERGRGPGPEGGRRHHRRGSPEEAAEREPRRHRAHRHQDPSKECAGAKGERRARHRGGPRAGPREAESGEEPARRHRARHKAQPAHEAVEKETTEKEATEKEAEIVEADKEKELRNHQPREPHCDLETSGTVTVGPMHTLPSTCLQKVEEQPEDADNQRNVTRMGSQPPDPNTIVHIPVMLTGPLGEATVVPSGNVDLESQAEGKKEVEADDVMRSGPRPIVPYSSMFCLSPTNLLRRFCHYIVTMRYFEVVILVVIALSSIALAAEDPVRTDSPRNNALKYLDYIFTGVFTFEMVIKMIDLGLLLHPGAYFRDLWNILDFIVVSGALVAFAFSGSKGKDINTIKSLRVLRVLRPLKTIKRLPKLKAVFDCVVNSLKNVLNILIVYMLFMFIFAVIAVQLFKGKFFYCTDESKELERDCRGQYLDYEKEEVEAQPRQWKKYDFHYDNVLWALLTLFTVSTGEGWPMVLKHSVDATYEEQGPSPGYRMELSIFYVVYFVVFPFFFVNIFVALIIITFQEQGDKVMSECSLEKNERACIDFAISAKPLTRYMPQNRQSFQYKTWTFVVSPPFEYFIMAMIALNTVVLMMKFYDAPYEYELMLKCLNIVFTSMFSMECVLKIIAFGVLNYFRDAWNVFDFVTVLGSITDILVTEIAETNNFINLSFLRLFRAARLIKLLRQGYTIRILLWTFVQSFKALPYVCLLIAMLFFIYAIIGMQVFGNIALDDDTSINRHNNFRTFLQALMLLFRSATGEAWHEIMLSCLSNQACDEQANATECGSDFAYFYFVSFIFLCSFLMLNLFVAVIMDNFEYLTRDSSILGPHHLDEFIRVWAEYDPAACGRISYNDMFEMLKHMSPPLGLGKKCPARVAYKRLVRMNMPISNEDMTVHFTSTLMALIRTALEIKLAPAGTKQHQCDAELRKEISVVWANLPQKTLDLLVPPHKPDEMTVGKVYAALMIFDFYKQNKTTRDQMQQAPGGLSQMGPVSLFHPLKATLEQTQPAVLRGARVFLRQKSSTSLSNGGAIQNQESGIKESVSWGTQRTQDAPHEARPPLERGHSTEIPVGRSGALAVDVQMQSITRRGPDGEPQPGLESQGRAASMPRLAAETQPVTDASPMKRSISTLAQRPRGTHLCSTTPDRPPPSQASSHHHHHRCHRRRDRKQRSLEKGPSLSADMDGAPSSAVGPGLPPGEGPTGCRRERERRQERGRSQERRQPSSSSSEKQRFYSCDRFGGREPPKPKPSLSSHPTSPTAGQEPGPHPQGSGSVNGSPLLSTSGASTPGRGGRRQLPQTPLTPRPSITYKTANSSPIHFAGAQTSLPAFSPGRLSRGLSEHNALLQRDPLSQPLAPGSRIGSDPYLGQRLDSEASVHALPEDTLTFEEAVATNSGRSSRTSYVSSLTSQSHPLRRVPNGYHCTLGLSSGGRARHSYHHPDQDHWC
T3 sequence (Q02410 whole entry): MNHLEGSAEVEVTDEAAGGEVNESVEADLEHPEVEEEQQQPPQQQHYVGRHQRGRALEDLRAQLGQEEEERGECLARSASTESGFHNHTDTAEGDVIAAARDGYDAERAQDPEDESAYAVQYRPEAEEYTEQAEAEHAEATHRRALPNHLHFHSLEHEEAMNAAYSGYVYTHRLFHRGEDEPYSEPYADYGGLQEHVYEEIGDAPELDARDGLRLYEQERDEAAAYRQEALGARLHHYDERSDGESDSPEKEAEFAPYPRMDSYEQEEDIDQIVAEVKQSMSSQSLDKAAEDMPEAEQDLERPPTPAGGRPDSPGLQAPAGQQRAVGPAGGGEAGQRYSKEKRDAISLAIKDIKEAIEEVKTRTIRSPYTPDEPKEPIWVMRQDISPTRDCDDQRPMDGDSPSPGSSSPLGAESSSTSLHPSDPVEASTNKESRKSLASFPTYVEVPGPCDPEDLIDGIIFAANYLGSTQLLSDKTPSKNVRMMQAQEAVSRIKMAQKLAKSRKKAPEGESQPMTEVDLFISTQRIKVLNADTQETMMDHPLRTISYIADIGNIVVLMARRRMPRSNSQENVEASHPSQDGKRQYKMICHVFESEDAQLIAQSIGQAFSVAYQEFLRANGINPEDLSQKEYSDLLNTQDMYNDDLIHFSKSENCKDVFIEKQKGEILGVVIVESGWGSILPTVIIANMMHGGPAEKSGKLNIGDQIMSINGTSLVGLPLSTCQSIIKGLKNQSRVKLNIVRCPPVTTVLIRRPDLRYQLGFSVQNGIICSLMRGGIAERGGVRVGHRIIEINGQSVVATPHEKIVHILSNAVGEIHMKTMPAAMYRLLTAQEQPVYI

[12] = target: T3, Voltage-gated N-type calcium channel alpha-1B subunit/Amyloid beta A4 precursor protein-binding family A member 1; assay type: protein assay; remark: listed apart in the source
[13] = Counterscreen for IDE inhibitors: Luminescence-based cell-based high throughput dose response assay to identify compounds that are cytotoxic to HEK cells. [Related pubchem assays: 434962 (Primary screen (IDE inhibitors in singlicate)), 449730 (Counterscreen (Cytotoxicity in triplicate)), 435028 (Confirmation (IDE inhibitors in triplicate)) …; assay type: functional; settings: HEK293
[14] = target: Glucose-6-phosphate 1-dehydrogenase (Homo sapiens, UniProt P11413); experiment: inhibition of Homo sapiens G6PD, dose series – biochemical, fluorescence, selectivity assay for P. falciparum G6PD inhibitor project, dose response (AID 504792); assay type: functional
Insulin-degrading enzyme = target: T4, Insulin-degrading enzyme (Homo sapiens, UniProt P14735); experiment: Dose Response: Fluorescence polarization-based cell-based high throughput dose response assay for inhibitors of insulin-degrading enzyme (IDE). [Related pubchem assays: 434962 (Primary screen (IDE inhibitors in singlicate)), 449730 (Counterscreen (Cytotoxicity in triplicate)), 435028 (Confirmation (IDE inhibitors in triplicate)), 434984 (Summary …; assay type: functional
T4 sequence (P14735 whole entry): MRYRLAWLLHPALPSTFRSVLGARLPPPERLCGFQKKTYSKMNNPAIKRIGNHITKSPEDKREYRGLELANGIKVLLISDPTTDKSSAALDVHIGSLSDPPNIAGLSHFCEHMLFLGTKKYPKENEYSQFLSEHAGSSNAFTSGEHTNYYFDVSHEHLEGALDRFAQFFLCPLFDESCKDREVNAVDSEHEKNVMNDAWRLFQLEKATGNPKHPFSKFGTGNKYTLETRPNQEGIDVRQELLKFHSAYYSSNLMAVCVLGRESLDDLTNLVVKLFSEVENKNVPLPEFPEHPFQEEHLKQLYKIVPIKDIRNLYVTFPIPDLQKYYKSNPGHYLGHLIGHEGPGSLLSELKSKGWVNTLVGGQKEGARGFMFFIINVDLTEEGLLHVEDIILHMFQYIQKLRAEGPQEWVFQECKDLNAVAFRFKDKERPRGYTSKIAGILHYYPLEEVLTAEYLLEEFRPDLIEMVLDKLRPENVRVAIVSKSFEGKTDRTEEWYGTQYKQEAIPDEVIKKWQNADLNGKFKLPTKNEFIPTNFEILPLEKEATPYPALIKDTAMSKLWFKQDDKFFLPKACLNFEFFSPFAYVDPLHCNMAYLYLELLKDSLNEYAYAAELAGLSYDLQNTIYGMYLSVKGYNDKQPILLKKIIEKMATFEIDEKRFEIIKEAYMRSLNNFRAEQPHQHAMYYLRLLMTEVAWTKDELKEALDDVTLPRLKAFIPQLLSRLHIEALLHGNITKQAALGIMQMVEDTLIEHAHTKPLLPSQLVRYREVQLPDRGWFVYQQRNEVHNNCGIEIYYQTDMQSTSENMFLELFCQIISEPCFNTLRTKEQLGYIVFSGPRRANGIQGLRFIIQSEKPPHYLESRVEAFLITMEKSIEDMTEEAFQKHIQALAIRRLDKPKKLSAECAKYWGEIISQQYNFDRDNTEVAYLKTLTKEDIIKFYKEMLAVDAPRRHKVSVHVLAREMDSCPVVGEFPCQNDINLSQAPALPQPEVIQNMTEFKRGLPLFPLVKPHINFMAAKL

[15] = target: DNA dC->dU-editing enzyme APOBEC-3A (Homo sapiens, UniProt P31941); experiment: A3A deaminase inhibition for selectivity – biochemical, dose response (AID 504722); assay type: functional
[16] = target: T5, Histone-lysine N-methyltransferase NSD2 (Homo sapiens, UniProt O96028); assay type: biochemical
T5 sequence (O96028 whole entry): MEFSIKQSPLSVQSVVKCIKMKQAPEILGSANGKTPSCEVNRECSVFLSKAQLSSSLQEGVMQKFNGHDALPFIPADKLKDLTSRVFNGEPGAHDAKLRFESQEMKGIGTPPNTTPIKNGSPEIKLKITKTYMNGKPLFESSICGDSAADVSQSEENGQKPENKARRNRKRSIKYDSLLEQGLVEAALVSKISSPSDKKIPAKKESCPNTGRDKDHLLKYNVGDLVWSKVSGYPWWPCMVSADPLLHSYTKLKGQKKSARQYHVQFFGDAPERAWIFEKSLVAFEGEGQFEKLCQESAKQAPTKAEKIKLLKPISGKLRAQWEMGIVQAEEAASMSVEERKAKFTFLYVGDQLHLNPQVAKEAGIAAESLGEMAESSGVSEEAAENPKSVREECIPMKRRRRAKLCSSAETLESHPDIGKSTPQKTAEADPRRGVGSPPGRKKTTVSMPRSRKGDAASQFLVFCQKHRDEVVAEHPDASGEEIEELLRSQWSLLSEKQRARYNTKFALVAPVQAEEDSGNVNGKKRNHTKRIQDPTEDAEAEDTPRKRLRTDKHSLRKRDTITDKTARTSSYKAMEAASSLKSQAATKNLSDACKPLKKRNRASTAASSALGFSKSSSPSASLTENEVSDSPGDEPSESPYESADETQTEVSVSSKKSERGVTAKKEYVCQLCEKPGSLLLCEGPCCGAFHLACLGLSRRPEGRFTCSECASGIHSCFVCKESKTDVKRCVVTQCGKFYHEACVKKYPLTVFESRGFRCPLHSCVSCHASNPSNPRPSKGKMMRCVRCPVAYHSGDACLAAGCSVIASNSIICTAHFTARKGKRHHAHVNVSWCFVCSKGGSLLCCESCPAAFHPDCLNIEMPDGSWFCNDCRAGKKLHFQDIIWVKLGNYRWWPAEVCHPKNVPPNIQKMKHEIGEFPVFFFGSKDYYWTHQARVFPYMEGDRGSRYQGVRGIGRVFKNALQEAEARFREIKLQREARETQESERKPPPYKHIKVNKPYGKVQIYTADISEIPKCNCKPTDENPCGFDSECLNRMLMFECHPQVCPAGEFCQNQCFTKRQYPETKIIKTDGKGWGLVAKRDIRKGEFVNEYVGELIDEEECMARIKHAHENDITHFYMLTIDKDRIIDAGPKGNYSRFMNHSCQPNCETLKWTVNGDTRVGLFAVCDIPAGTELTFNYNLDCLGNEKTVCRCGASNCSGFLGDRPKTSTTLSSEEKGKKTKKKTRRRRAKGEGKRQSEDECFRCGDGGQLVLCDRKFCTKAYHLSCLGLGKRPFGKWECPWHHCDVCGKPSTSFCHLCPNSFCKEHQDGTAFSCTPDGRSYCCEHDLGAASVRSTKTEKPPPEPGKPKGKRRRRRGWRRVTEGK

[17] = target: T6, Rac GTPase-activating protein 1 (Homo sapiens, UniProt Q9H0H5); experiment: blockers of MgcRacGAP-driven Rac1 GTP hydrolysis – biochemical, ADP Hunter fluorescence, primary and confirmatory, confirmation (AID 624330); assay type: functional
T6 sequence (Q9H0H5 whole entry): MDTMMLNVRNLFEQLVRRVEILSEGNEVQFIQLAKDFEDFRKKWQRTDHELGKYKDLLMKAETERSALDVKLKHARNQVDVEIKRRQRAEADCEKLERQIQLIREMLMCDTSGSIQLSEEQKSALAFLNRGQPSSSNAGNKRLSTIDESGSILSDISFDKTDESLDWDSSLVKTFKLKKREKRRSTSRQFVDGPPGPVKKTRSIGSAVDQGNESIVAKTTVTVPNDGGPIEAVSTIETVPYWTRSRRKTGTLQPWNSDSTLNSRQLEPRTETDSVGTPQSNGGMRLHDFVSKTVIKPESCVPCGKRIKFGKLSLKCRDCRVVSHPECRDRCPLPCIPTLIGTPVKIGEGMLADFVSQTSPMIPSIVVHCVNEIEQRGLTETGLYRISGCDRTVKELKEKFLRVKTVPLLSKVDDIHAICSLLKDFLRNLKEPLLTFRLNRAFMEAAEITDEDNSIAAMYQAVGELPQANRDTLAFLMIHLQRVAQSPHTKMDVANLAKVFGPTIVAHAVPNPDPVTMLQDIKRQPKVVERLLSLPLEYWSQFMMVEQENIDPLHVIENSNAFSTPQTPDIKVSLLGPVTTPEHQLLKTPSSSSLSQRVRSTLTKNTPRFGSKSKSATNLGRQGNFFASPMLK

[18] = Luminescence Cell-Based Dose Retest to Confirm Inhibitors of Cancer Stem Cells. [Related pubchem assays (depositor defined):AID2717, AID2721]; assay type: functional, Homo sapiens; settings: Homo sapiens

Chain of Dual specificity protein phosphatase 3 (P51452 whole entry): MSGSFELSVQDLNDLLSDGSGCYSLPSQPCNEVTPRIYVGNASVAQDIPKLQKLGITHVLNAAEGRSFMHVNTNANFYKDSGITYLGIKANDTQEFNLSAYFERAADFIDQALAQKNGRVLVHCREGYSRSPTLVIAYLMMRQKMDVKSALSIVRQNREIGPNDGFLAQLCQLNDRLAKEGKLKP

With `c1ccc2c(CNC34CC5CC(CC(C5)C3)C4)c[nH]c2c1` the Ki [1] was 32.9 µM (inactive).

With `Cc1nc(Nc2ccncc2)c2oc3ccccc3c2n1` the EC50 [2] was > 91.2 µM (inactive), the EC50 [3] was 2.47 µM (active) and the EC50 [4] was > 60 µM (not active). The IC50 (Protein Rev) was > 79.4 µM (not active) and the EC50 [5] was > 91.2 µM (inactive).

For `COc1cccc(CNS(=O)(=O)c2ccc3c(c2)NC(=O)CS3)c1`, the EC50 [6] was > 50 µM (active).

For `NC(=O)[C@H](Cc1ccccc1)n1c(=O)[nH]c(=O)n(-c2ccc(Cl)cc2)c1=O`, the IC50 [7] was > 100 µM (not active), the IC50 [8] was > 100 µM (inactive) and the IC50 [9] was > 100 µM (not active). For the same molecule, the IC50 [10] was > 100 µM (inactive).

For `Cc1cc(C)c2c(=O)n(CC(=O)Nc3ccc(Br)c(C)c3)sc2n1`, the IC50 [11] was > 50 µM (inactive), the IC50 [12] was > 56.8 µM (not active) and the IC50 [13] was 17.5 µM (not active). For the same molecule, the IC50 [14] was 49.2 µM (inactive), the IC50 (Insulin-degrading enzyme) was 4.54 µM (active) and the IC50 [15] was > 100 µM (inactive).

With `N#C/C(=C/c1ccc(O)c(O)c1)C(=O)NCc1ccc(Cl)cc1` the AC50 [16] was 5.16 µM (active), the IC50 [17] was 34.5 µM (active) and the IC50 [13] was 35.9 µM (not active). For the same molecule, the IC50 (Insulin-degrading enzyme) was 11.6 µM (not active) and the AC50 [18] was 6.32 µM (active).

With `COc1ccccc1NC1=NC(c2ccc(Cl)cc2)N=C(N)N1` (stereo not given) the IC50 (Protein Rev) was > 79.4 µM (not active).

With `O=C1C=CC(=O)N1Nc1c(Cl)cc(Cl)cc1Cl` the Ki [1] was 33.7 µM (inactive).

For `O=C(Cc1ccc(Br)cc1)c1ccc(O)cc1O`, the EC50 [6] was > 50 µM (active).
